Experimental data: publication doi:10.1101/2024.10.17.618876v1 (biorxiv, 2024)

Target: T1, human lysozyme (HL) (Homo sapiens, UniProt P61626)
T1 sequence (P61626 19-148): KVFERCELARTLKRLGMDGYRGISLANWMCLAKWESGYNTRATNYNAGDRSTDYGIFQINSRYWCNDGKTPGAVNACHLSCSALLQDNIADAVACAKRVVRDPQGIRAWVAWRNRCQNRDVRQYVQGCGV
Assay: isothermal titration calorimetry
Format: binding

N=C(N)c1ccccc1 [benzamidine]
Kd: 1.55 µM
